The values below are quoted from earlier work in patent publication US20250049738A1, “METHOD OF TREATMENT AND SELECTION OF PATIENTS BENEFITING FROM AGOMELATINE BASED ON EEG MEASUREMENTS” (Alto Neuroscience, Inc., priority 2023, published 2025).

The subject of one data set is circadian rhythm. Particulars: in vivo; cited from earlier work.
The next data set concerns depression. Particulars: in vivo; cited from earlier work.

For `COc1ccc2[nH]cc(CCNC(C)=O)c2c1` [melatonin], in the data set on circadian rhythm, the “effect on circadian rhythm” value is listed as “phase advance circadian rhythm”. Further, the antidepressant efficacy entry in the data set on depression is listed as “not an effective antidepressant”.
